Assay results reported in patent US10457686B2, “[1,2,3]triazolo[4,5-D]pyrimidine derivatives” (Hoffmann-La Roche Inc., priority 2016, dated 2019).

Legend:
[1] = target: human CB2 (Homo sapiens (Human), UniProt P34972); assay: Radioligand binding assay, human CNR2 (CB2) receptor, [3H]-CP-55,940; details: membrane preparations of HEK cells expressing human CNR2; 2.6 nM [3H]-CP-55,940
Method: (§1) Radioligand Binding Assay
(§2) The affinity of the compounds of the invention for cannabinoid receptors was determined using recommended amounts of membrane preparations (PerkinElmer) of human embryonic kidney (HEK) cells expressing the human CNR1 or CNR2 receptors in conjunction with 1.5 or 2.6 nM [3H]-CP-55,940 (Perkin Elmer) as radioligand, respectively. Binding was performed in binding buffer (50 mM Tris, 5 mM MgCl2, 2.5 mM EDTA, and 0.5% (wt/vol) fatty acid free BSA, pH 7.4 for CB1 receptor and 50 mM Tris, 5 mM MgCl2, 2.5 mM EGTA, and 0.1% (wt/vol) fatty acid free BSA, pH 7.4 for CB2 receptor) in a total volume of 0.2 mL for 1 h at 30° C. shaking. The reaction was terminated by rapid filtration through microfiltration plates coated with 0.5% polyethylenimine (UniFilter GF/B filter plate; Packard). Bound radioactivity was analyzed for Ki using nonlinear regression analysis (Activity Base, ID Business Solution, Limited), with the Kd values for [^3H]CP55,940 determined from saturation experiments.
The compounds according to formula (I) have an activity in the above assay (Ki) particularly of 0.5 nM to 10 μM, more particularly of 0.5 nM to 3 μM and most particularly of 0.5 nM to 100 nM.

[2] = target: human CB1 (Homo sapiens (Human), UniProt P21554); assay: Radioligand binding assay, human CNR1 (CB1) receptor, [3H]-CP-55,940; details: membrane preparations of HEK cells expressing human CNR1; 1.5 nM [3H]-CP-55,940
Method: as §1, §2

human CB2, sequence (P34972 whole entry): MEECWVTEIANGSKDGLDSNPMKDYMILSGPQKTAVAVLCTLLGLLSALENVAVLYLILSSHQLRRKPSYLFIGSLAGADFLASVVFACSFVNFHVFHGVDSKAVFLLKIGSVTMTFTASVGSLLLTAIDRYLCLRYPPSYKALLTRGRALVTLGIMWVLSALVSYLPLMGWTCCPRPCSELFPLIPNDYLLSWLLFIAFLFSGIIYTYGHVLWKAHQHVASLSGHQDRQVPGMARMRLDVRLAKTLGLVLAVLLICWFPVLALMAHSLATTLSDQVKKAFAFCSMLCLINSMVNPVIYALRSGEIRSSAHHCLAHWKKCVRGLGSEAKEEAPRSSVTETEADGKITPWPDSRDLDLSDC
human CB1, sequence (P21554 whole entry): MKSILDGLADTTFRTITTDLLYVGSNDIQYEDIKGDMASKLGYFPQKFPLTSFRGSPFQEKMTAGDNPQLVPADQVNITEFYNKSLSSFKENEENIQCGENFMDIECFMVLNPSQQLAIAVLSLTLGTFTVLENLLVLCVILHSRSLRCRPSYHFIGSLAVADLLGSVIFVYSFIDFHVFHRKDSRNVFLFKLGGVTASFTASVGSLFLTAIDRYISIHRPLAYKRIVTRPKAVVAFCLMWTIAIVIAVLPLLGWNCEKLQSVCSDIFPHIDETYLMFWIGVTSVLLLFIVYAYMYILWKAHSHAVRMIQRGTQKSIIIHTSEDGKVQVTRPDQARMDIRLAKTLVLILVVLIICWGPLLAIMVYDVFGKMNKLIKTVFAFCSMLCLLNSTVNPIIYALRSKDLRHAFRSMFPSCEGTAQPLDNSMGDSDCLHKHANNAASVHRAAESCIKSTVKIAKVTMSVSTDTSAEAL

C#Cc1cccc(C2(C(F)(F)F)N=N2)c1Cn1nc2nc(C(C)(C)C)nc(N3CC[C@H](O)C3)c2n1 [Example 6, (3S)-1-[5-tert-Butyl-2-[[2-ethynyl-6-[3-(trifluoromethyl)diazirin-3-yl]phenyl]methyl]triazolo[4,5-d]pyrimidin-7-yl]pyrrolidin-3-ol]
Ki [1]: 99.2 nM | Ki [2]: > 10000 nM

C#Cc1cccc(C2(C(F)(F)F)N=N2)c1Cn1nc2nc(C(F)(F)c3ccccc3)nc(N3CCC(F)(F)C3)c2n1 [Example 4, 5-[Difluoro(phenyl)methyl]-7-(3,3-difluoropyrrolidin-1-yl)-2-[[2-ethynyl-6-[3-(trifluoromethyl)diazirin-3-yl]phenyl]methyl]triazolo[4,5-d]pyrimidine]
Ki [1]: 1070 nM | Ki [2]: > 10000 nM

C#Cc1cccc(C2(C(F)(F)F)N=N2)c1Cn1nc2nc(C(C)(C)C)nc(N3CCC(F)(F)C3)c2n1 [Example 5, 5-tert-Butyl-7-(3,3-difluoropyrrolidin-1-yl)-2-[[2-ethynyl-6-[3-(trifluoromethyl)diazirin-3-yl]phenyl]methyl]triazolo[4,5-d]pyrimidine]
Ki [1]: 81.4 nM | Ki [2]: 583 nM

C#Cc1cccc(C2(C(F)(F)F)N=N2)c1Cn1nc2nc(C(F)(F)c3ccccc3)nc(N3CC[C@H](O)C3)c2n1 [Example 7, (3S)-1-[5-[Difluoro(phenyl)methyl]-2-[[2-ethynyl-6-[3-(trifluoromethyl)diazirin-3-yl]phenyl]methyl]triazolo[4,5-d]pyrimidin-7-yl]pyrrolidin-3-ol]
Ki [1]: 358 nM | Ki [2]: 5460 nM

C#CCCC1(CCNC(=O)c2nonc2Cn2nc3nc(C(C)(C)C)nc(N4CC[C@H](O)C4)c3n2)N=N1 [Example 3, 4-({5-tert-Butyl-7-[(3S)-3-hydroxypyrrolidin-1-yl]-2H-[1,2,3]triazolo[4,5-d]pyrimidin-2-yl}methyl)-N-{2-[3-(but-3-yn-1-yl)-3H-diaziren-3-yl]ethyl}-1,2,5-oxadiazole-3-carboxamide]
Ki [1]: 2860 nM | Ki [2]: > 10000 nM

C#CCCC1(CCNC(=O)c2nonc2Cn2nc3nc(C(C)(C)C)nc(N4CCC(F)(F)C4)c3n2)N=N1 [Example 2, 4-{[5-tert-Butyl-7-(3,3-difluoropyrrolidin-1-yl)-2H-[1,2,3]triazolo[4,5-d]pyrimidin-2-yl]methyl}-N-{2-[3-(but-3-yn-1-yl)-3H-diaziren-3-yl]ethyl}-1,2,5-oxadiazole-3-carboxamide]
Ki [1]: 932 nM | Ki [2]: > 10000 nM
